{
  "source": "patent US12514832B2",
  "about": "“Methods for using low-dose colchicine after myocardial infarction” (INSTITUT DE CARDIOLOGIE DE MONTREAL, priority 2019, dated 2026)",
  "key": {"[1]": {"experiment": "COLCOT safety and adverse events (safety population)", "assay_type": "in vivo, human", "procedure": "All serious adverse events were recorded. The only other adverse events recorded were those that were considered to be related to the gastrointestinal system, events that were judged by the investigator to be related to colchicine or placebo, or laboratory abnormalities that had been judged by the investigator to be clinically significant."}, "[2]": {"system": "rs6916345 (LINC01108/JARID2, chromosome 6); rs10128117 (SEPHS1, chromosome 10)", "details": "for HR, gastrointestinal disorders / coef, gastrointestinal disorders / Coefficient, genetic association with gastrointestinal disorders / HR (hazard ratio), genetic association with gastrointestinal disorders: colchicine treatment arm"}, "[3]": {"details": "colchicine arm, males + females, on-treatment pgx population"}, "[4]": {"details": "rs535968 effect allele C vs T, males + females"}, "[5]": {"details": "rs615497 effect allele G vs A, males + females"}, "[6]": {"details": "rs825610 effect allele C vs T, males + females"}, "[7]": {"details": "rs2253619 chr 10, EA T vs NEA C"}, "[8]": {"details": "rs2253619 effect allele T vs C, males + females"}, "[9]": {"details": "rs2476986 effect allele T vs G, males + females"}, "[10]": {"details": "rs2783648 effect allele A vs T, males + females"}},
  "note": "Like-named read-outs stand apart in the source and are kept apart here.",
  "data": [
    {"compound": "COc1cc2c(c(OC)c1OC)-c1ccc(OC)c(=O)cc1[C@@H](NC(C)=O)CC2", "note": "[Colchicine, colchicine]", "values": [
      {"measurement": "trial regimen discontinued, percent of patients", "setting": "[1]; at the end of the trial", "value": 18.4, "unit": "%"},
      {"measurement": "incidence of septic shock (in words)", "setting": "[1]; colchicine vs placebo", "value": "did not increase the incidence of septic shock"},
      {"measurement": "Cancers, excluding nonmelanoma skin cancers, number of patients", "setting": "[1]; safety population", "value": 42},
      {"measurement": "Cancers, excluding nonmelanoma skin cancers, percent", "setting": "[1]; safety population", "value": 1.8, "unit": "%"},
      {"measurement": "Anemia, number of patients", "setting": "[1]; safety population, N=2330", "value": 14},
      {"measurement": "Anemia, percent", "setting": "[1]; safety population, N=2330", "value": 0.6, "unit": "%"},
      {"measurement": "Any related adverse event, number of patients", "setting": "[1]; safety population, N=2330", "value": 372},
      {"measurement": "Any related adverse event, percent", "setting": "[1]; safety population, N=2330", "value": 16.0, "unit": "%"},
      {"measurement": "Any serious adverse event, number of patients", "setting": "[1]; safety population, N=2330", "value": 383},
      {"measurement": "Any serious adverse event, percent", "setting": "[1]; safety population, N=2330", "value": 16.4, "unit": "%"},
      {"measurement": "Cancer, number of patients", "setting": "[1]; safety population, N=2330", "value": 43},
      {"measurement": "Cancer, percent", "setting": "[1]; safety population, N=2330", "value": 1.8, "unit": "%"},
      {"measurement": "Diarrhea adverse event, number of patients", "setting": "[1]; safety population, N=2330", "value": 225},
      {"measurement": "Diarrhea adverse event, percent", "setting": "[1]; safety population, N=2330", "value": 9.7, "unit": "%"},
      {"measurement": "Flatulence adverse event, number of patients", "setting": "[1]; safety population, N=2330", "value": 15},
      {"measurement": "Flatulence adverse event, percent", "setting": "[1]; safety population, N=2330", "value": 0.6, "unit": "%"},
      {"measurement": "Gastrointestinal adverse event, number of patients", "setting": "[1]; safety population, N=2330", "value": 408},
      {"measurement": "Gastrointestinal adverse event, percent", "setting": "[1]; safety population, N=2330", "value": 17.5, "unit": "%"},
      {"measurement": "Gastrointestinal hemorrhage, number of patients", "setting": "[1]; safety population, N=2330", "value": 7},
      {"measurement": "Gastrointestinal hemorrhage, percent", "setting": "[1]; safety population, N=2330", "value": 0.3, "unit": "%"},
      {"measurement": "Gastrointestinal serious adverse event, number of patients", "setting": "[1]; safety population, N=2330", "value": 46},
      {"measurement": "Gastrointestinal serious adverse event, percent", "setting": "[1]; safety population, N=2330", "value": 2.0, "unit": "%"},
      {"measurement": "Hospitalization for heart failure, number of patients", "setting": "[1]; safety population, N=2330", "value": 25},
      {"measurement": "Hospitalization for heart failure, percent", "setting": "[1]; safety population, N=2330", "value": 1.1, "unit": "%"},
      {"measurement": "Infection serious adverse event, number of patients", "setting": "[1]; safety population, N=2330", "value": 51},
      {"measurement": "Infection serious adverse event, percent", "setting": "[1]; safety population, N=2330", "value": 2.2, "unit": "%"},
      {"measurement": "Leukopenia, number of patients", "setting": "[1]; safety population, N=2330", "value": 2},
      {"measurement": "Leukopenia, percent", "setting": "[1]; safety population, N=2330", "value": 0.1, "unit": "%"},
      {"measurement": "Nausea adverse event, number of patients", "setting": "[1]; safety population, N=2330", "value": 43},
      {"measurement": "Nausea adverse event, percent", "setting": "[1]; safety population, N=2330", "value": 1.8, "unit": "%"},
      {"measurement": "Pneumonia serious adverse event, number of patients", "setting": "[1]; safety population, N=2330", "value": 21},
      {"measurement": "Pneumonia serious adverse event, percent", "setting": "[1]; safety population, N=2330", "value": 0.9, "unit": "%"},
      {"measurement": "Septic shock serious adverse event, number of patients", "setting": "[1]; safety population, N=2330", "value": 2},
      {"measurement": "Septic shock serious adverse event, percent", "setting": "[1]; safety population, N=2330", "value": 0.1, "unit": "%"},
      {"measurement": "Thrombocytopenia, number of patients", "setting": "[1]; safety population, N=2330", "value": 3},
      {"measurement": "Thrombocytopenia, percent", "setting": "[1]; safety population, N=2330", "value": 0.1, "unit": "%"},
      {"measurement": "serious adverse event of myopathy", "setting": "[1]; statins used in 99% of trial participants", "value": "no serious adverse event of myopathy linked to colchicine occurred"},
      {"measurement": "Gastrointestinal disorders, hr per effect allele, rs857414 (G vs T)", "setting": "[2]; [3]", "value": 0.6},
      {"measurement": "Gastrointestinal disorders, hr per effect allele, rs2327827 (G vs A)", "setting": "[2]; [3]", "value": 0.5},
      {"measurement": "Gastrointestinal disorders, hr per effect allele, rs4620126 (G vs A)", "setting": "[2]; [3]", "value": 0.6},
      {"measurement": "Gastrointestinal disorders, hr per effect allele, rs6459368 (A vs G)", "setting": "[2]; [3]", "value": 0.5},
      {"measurement": "Gastrointestinal disorders, hr per effect allele, rs6903188 (G vs A)", "setting": "[2]; [3]", "value": 0.6},
      {"measurement": "Gastrointestinal disorders, hr per effect allele, rs6918045 (T vs C)", "setting": "[2]; [3]", "value": 0.6},
      {"measurement": "Gastrointestinal disorders, hr per effect allele, rs6920905 (C vs T)", "setting": "[2]; [3]", "value": 0.5},
      {"measurement": "Gastrointestinal disorders, hr per effect allele, rs7747013 (G vs A)", "setting": "[2]; [3]", "value": 0.5},
      {"measurement": "Gastrointestinal disorders, hr per effect allele, rs7751771 (C vs T)", "setting": "[2]; [3]", "value": 0.5},
      {"measurement": "Gastrointestinal disorders, hr per effect allele, rs7764937 (C vs G)", "setting": "[2]; [3]", "value": 0.5},
      {"measurement": "Gastrointestinal disorders, hr per effect allele, rs9349955 (T vs C)", "setting": "[2]; [3]", "value": 0.5},
      {"measurement": "Gastrointestinal disorders, hr per effect allele, rs9358042 (T vs C)", "setting": "[2]; [3]", "value": 0.6},
      {"measurement": "Gastrointestinal disorders, hr per effect allele, rs9358044 (T vs A)", "setting": "[2]; [3]", "value": 0.5},
      {"measurement": "Gastrointestinal disorders, hr per effect allele, rs9370772 (T vs C)", "setting": "[2]; [3]", "value": 0.6},
      {"measurement": "Gastrointestinal disorders, hr per effect allele, rs9382993 (C vs T)", "setting": "[2]; [3]", "value": 0.5},
      {"measurement": "Gastrointestinal disorders, hr per effect allele, rs9464702 (G vs A)", "setting": "[2]; [3]", "value": 0.6},
      {"measurement": "Gastrointestinal disorders, hr per effect allele, rs9476615 (T vs C)", "setting": "[2]; [3]", "value": 0.6},
      {"measurement": "Gastrointestinal disorders, hr per effect allele, rs9476616 (G vs C)", "setting": "[2]; [3]", "value": 0.5},
      {"measurement": "Gastrointestinal disorders, hr per effect allele, rs12210439 (A vs G)", "setting": "[2]; [3]", "value": 0.6},
      {"measurement": "Gastrointestinal disorders, hr per effect allele, rs70993041 (TAA vs T)", "setting": "[2]; [3]", "value": 0.5},
      {"measurement": "times more likely to have reported gastrointestinal disorders with colchicine than with placebo", "setting": "[2]; genotype A/A at rs6916345", "value": 2.4, "unit": "times"},
      {"measurement": "less likely to have reported gastrointestinal disorders with colchicine than with placebo", "setting": "[2]; genotype G/G at rs6916345", "value": 57, "unit": "%"},
      {"measurement": "times more likely to have reported gastrointestinal disorders with colchicine than with placebo", "setting": "[2]; genotype T/A at rs10128117", "value": 3.7, "unit": "times"},
      {"measurement": "HR, gastrointestinal disorders", "setting": "[2]; [4]", "value": 2.3},
      {"measurement": "coef, gastrointestinal disorders", "setting": "[2]; [4]", "value": 0.8496},
      {"measurement": "HR, gastrointestinal disorders", "setting": "[2]; [5]", "value": 2.4},
      {"measurement": "coef, gastrointestinal disorders", "setting": "[2]; [5]", "value": 0.8683},
      {"measurement": "HR, gastrointestinal disorders", "setting": "[2]; [6]", "value": 2.4},
      {"measurement": "coef, gastrointestinal disorders", "setting": "[2]; [6]", "value": 0.8604},
      {"measurement": "Coefficient, genetic association with gastrointestinal disorders", "setting": "[2]; [7]", "value": 0.921},
      {"measurement": "HR (hazard ratio), genetic association with gastrointestinal disorders", "setting": "[2]; [7]", "value": 2.51},
      {"measurement": "HR, gastrointestinal disorders", "setting": "[2]; [8]", "value": 2.5},
      {"measurement": "coef, gastrointestinal disorders", "setting": "[2]; [8]", "value": 0.9205},
      {"measurement": "Coefficient, genetic association with gastrointestinal disorders", "setting": "[2]; rs2327827 chr 6, EA G vs NEA A", "value": "−0.620"},
      {"measurement": "HR (hazard ratio), genetic association with gastrointestinal disorders", "setting": "[2]; rs2327827 chr 6, EA G vs NEA A", "value": 0.54},
      {"measurement": "HR, gastrointestinal disorders", "setting": "[2]; [9]", "value": 2.4},
      {"measurement": "coef, gastrointestinal disorders", "setting": "[2]; [9]", "value": 0.8717},
      {"measurement": "HR, gastrointestinal disorders", "setting": "[2]; [10]", "value": 2.4},
      {"measurement": "coef, gastrointestinal disorders", "setting": "[2]; [10]", "value": 0.8625},
      {"measurement": "Coefficient, genetic association with gastrointestinal disorders", "setting": "[2]; rs6459368 chr 6, EA A vs NEA G", "value": "−0.602"},
      {"measurement": "HR (hazard ratio), genetic association with gastrointestinal disorders", "setting": "[2]; rs6459368 chr 6, EA A vs NEA G", "value": 0.55},
      {"measurement": "Coefficient, genetic association with gastrointestinal disorders", "setting": "[2]; rs6903188 chr 6, EA G vs NEA A", "value": "−0.598"},
      {"measurement": "HR (hazard ratio), genetic association with gastrointestinal disorders", "setting": "[2]; rs6903188 chr 6, EA G vs NEA A", "value": 0.55}
    ]}
  ]
}
